The subject of one assay is male C57BL/6 mice. Nature of the assay: 55° C. warm-water tail-flick test (antinociception). In kind it is in vivo. To be noted: Mus musculus, sc, 0.5 h, compounds of Table I; s.c.; 30 min; 55° C. water; configuration tested as in Table II; read-out: ED50 (mg/kg) at 30 min on C57BL/6 mice in Warm-water Tail-flick Test. The procedure: Antinociception was assessed using the 55° C. warm-water tail-flick test. The latency to the first sign of a rapid tail flick was taken as the behavioral endpoint. Each mouse was first tested for baseline latency by immersing its tail in the water and recording the time to response. Mice not responding within 2 secs were excluded from further testing. Responsive mice were then s.c. administered the test compound and tested for antinociception at 30 min, 60 min, 90 min, and 120 min time points afterward. Antinociception was calculated using the following formula: percentage of antinociception=100×(test latency−control latency)/(20−control latency).
The following new compounds were also made and tested to determine the half maximal possible effective dose, or ED50 (mg/kg), in mice, using one of: the warm water tail-flick test as in Table II, spared nerve injury, chronic constriction injury, or Complete Freund's adjuvant induced inflammatory pain. The symbols in the last column are: + indicates ED 50>50 mg/kg; ++ indicates ED 50 is less than or equal to 30 mg/kg.
As to `Cc1ccc(C(C)(C)N2CCC(CCc3ccc(F)s3)(c3ncc(C(C)(C)C)[nH]3)C2)cn1` (single isomer, unassigned) [Compound 282], the ED50 was not above 30 mg/kg.

Still in this assay, the particulars now being: Mus musculus; half maximal effective dose in mice; using one of: warm water tail-flick test, spared nerve injury, chronic constriction injury, or Complete Freund's adjuvant induced inflammatory pain (not stated which per compound); read-out: Biological Activity (ED50).
On to `CCOC(C(F)(F)F)(C(F)(F)F)[C@]1(/C=C/c2cnc3ccccc3n2)CCN(C(C)(C)c2ccc(C)nc2)C1` [Compound 187, (S,E)-2-(2-(3-(2-ethoxy-1,1,1,3,3,3-hexafluoropropan-2-yl)-1-(2-(6-methylpyridin-3-yl)propan-2-yl)pyrrolidin-3-yl)vinyl)quinoxaline], for which the ED50 is more than 50 mg/kg.
`Cc1ccc(C(C)(C)N2CC[C@@](CCc3ccc(C#N)cc3)(C(=O)C(F)(F)F)C2)cn1` [Compound 166, (R)-4-(2-(1-(2-(6-methylpyridin-3-yl)propan-2-yl)-3-(2,2,2-trifluoroacetyl)pyrrolidin-3-yl)ethyl) benzonitrile]: the ED50 was not above 30 mg/kg.
Same read-out and setting: as for `CC1(C)COC1[C@]1(CCc2ccc(C#N)cc2)CCN(Cc2ccc(Cl)cc2)C1` (single isomer, unassigned) [Compound 195, 4-(2-((R)-1-(4-chlorobenzyl)-3-((R or S)-3,3-dimethyloxetan-2-yl)pyrrolidin-3-yl)ethyl) benzonitrile], the figure is not above 30 mg/kg; as for `CC(C)(c1ccccn1)N1CC[C@](CO)(CCc2ccc(C#N)cn2)C1` [Compound 114, (R)-6-(2-(3-(hydroxymethyl)-1-(2-(pyridin-2-yl)propan-2-yl)pyrrolidin-3-yl)ethyl) nicotinonitrile], more than 50 mg/kg.
On to `CC(C)(c1ccccn1)N1CC[C@@](CCc2ccc(C#N)cn2)(COCc2ccccc2)C1` [Compound 113, (R)-6-(2-(3-((benzyloxy)methyl)-1-(2-(pyridin-2-yl)propan-2-yl)pyrrolidin-3-yl)ethyl) nicotinonitrile], for which the ED50 is more than 50 mg/kg.
For the compound `CC(C)(c1ccccn1)N1CC[C@@](CCc2ccc3nonc3c2)(C(O)C(F)(F)F)C1` (single isomer, unassigned) [Compound 176, (R or S)-1-((R)-3-(2-(benzo[c][1,2,5]oxadiazol-5-yl)ethyl)-1-(2-(pyridin-2-yl)propan-2-yl)pyrrolidin-3-yl)-2,2,2-trifluoroethan-1-ol], the ED50 is more than 50 mg/kg.
Same read-out and setting: as for `Cc1ccc(C(C)(C)N2CC[C@@](CCc3ccc(F)cc3)(CS(C)(=O)=O)C2)cn1` [Compound 16, (R)-5-(2-(3-(4-fluorophenethyl)-3-((methylsulfonyl)methyl)pyrrolidin-1-yl)propan-2-yl)-2-methylpyridine], the figure is not above 30 mg/kg; as for `CC(C)(c1ccccn1)N1CC[C@](CO)(CCc2ccc(C(F)(F)F)o2)C1` [Compound 189, (R)-(1-(2-(pyridin-2-yl)propan-2-yl)-3-(2-(5-(trifluoromethyl)furan-2-yl)ethyl)pyrrolidin-3-yl)methano], more than 50 mg/kg; as for `N#Cc1ccc(CC[C@@]2(C3OCC3(F)F)CCN(Cc3ccc(Cl)cc3)C2)cc1` (single isomer, unassigned) [Compound 199, 4-(2-((R)-1-(4-chlorobenzyl)-3-((R or S)-3,3-difluorooxetan-2-yl)pyrrolidin-3-yl)ethyl) benzonitrile], not above 30 mg/kg.
With `CCOC(=O)[C@]1(CCc2ccc(C#N)cc2)CCN(C(C)(C)c2ccccn2)C1` [Compound 139, ethyl (R)-3-(4-cyanophenethyl)-1-(2-(pyridin-2-yl)propan-2-yl)pyrrolidine-3-carboxylate], the ED50 is more than 50 mg/kg.
On the same count and under the same terms, in the case of `CCOC(C(F)(F)F)(C(F)(F)F)[C@]1(CCc2ccc(C#N)cc2)CCN(C(C)(C)c2ccccn2)C1` [Compound 137, (R)-4-(2-(3-(2-ethoxy-1,1,1,3,3,3-hexafluoropropan-2-yl)-1-(2-(pyridin-2-yl)propan-2-yl)pyrrolidin-3-yl)ethyl) benzonitrile] it was more than 50 mg/kg.
Take `CC(C)(c1ccccn1)N1CC[C@@](CCc2ccc(F)c(F)c2)(C(O)C(F)(F)F)C1` (single isomer, unassigned) [Compound 150, (R or S)-1-((R)-3-(3,4-difluorophenethyl)-1-(2-(pyridin-2-yl)propan-2-yl)pyrrolidin-3-yl)-2,2,2-trifluoroethan-1-ol]: the ED50 was not above 30 mg/kg.

The values above are taken from patent US20240383882A1 (Ecstasy LLC, priority 2020, published 2024).
